Measurements: US20260001871A1, “TRIAZOLE DERIVATIVES AS MODULATORS OF MAS-RELATED G-PROTEIN RECEPTOR D” (ESCIENT PHARMACEUTICALS, INC., priority 2022, published 2026)
pIC50: −log10 of the molar value.

Molecular target: human MRGPRD (Homo sapiens, UniProt Q8TDS7)
Experiment: MRGPRD antagonist activity, IP-One HTRF assay in CHO cells stably expressing human MRGPRD (versus 100 μM β-Alanine agonist)
Format: cell-based
Method in brief: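 IP-1 HTRF read-out, with IC50 from HTRF ratio curves and percent antagonism relative to maximal efficacy (mean, SEM). Antagonists and agonist were co-incubated 1 h at 37 °C plus 1 h at room temperature on overnight-plated MRGPRD-CHO cells in LiCl-containing Tris buffer, pH 8.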

Sequence of human MRGPRD (Q8TDS7 whole entry): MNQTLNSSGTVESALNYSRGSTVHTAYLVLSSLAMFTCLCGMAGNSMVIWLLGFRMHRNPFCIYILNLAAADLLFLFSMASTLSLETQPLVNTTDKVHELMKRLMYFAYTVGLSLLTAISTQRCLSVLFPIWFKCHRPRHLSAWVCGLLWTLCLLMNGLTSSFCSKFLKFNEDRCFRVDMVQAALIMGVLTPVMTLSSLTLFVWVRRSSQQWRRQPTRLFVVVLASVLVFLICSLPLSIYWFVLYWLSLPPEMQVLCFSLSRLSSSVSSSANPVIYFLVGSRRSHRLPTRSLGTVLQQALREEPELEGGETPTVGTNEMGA

Row | SMILES | pIC50
1 | COc1ccc(C2(NC(=O)c3nnn(-c4ccc(-c5c(C)nn(C)c5C)cc4)c3C(C)C)CC2)cn1 [Compound 18-25] | 6.00 to 6.30
2 | CC(C)c1c(C(=O)NC2(c3cccnc3)CC2)nnn1-c1ccc(-c2ccc(C#N)c(F)c2)cc1 [Compound 18-26] | 5.52 to 6.00
3 | CCn1cc(C2(NC(=O)c3nnn(-c4ccc(-c5ccc(C#N)nc5)cc4)c3C(C)C)CC2)cn1 [Compound 18-27] | 5.52 to 6.00
4 | COc1ccc(C2(NC(=O)c3nnn(-c4ccc(-c5ccccc5)cc4)c3C(C)C)CC2)cn1 [Compound 18-28] | 5.52 to 6.00
5 | CC(C)c1c(C(=O)NC2(c3cccnc3)CC2)nnn1-c1ccc(-c2ccc(C#N)nc2)cc1 [Compound 18-29] | < 5.52
6 | CC(C)c1c(C(=O)NC2(c3cccnc3)CC2)nnn1-c1ccc(-c2ccccc2)cc1 [Compound 18-30] | < 5.52
7 | Cc1ccc(CNC(=O)c2nnn(-c3ccc(-c4c(C)nn(C)c4C)cn3)c2C2CC2)cn1 [Compound 19-1] | 6.00 to 6.30
8 | CCn1nc(C)c(-c2ccc(-n3nnc(C(=O)NC4(c5cccnc5)CC4)c3C3CC3)cc2)c1C [Compound 19-2, 5-cyclopropyl-1-(4-(1-ethyl-3,5-dimethyl-1H-pyrazol-4-yl)phenyl)-N-(1-(pyridin-3-yl)cyclopropyl)-1H-1,2,3-triazole-4-carboxamide] | 6.30 to 7.00
9 | Cc1nn2ccccc2c1-c1ccc(-n2nnc(C(=O)NC3(c4cccnc4)CC3)c2C2CC2)cc1 [Compound 19-3] | 6.00 to 6.30
10 | COc1ccc(C2(NC(=O)c3nnn(-c4ccc(-c5c(C)nn6ccccc56)cc4)c3C(C)C)CC2)cn1 [Compound 19-4] | 6.30 to 7.00

The next lines start with the values.

Row | pIC50 | SMILES
11 | > 7.00 | Cc1cc(NC(=O)c2nnn(-c3ccc(-c4c(C)nn(CC(F)(F)F)c4C)cc3)c2C2CC2)ccn1 [Compound 20-1, 5-cyclopropyl-1-(4-(3,5-dimethyl-1-(2,2,2-trifluoroethyl)-1H-pyrazol-4-yl)phenyl)-N-(2-methylpyridin-4-yl)-1H-1,2,3-triazole-4-carboxamide]
12 | > 7.00 | Cc1ccc(CNC(=O)c2nnn(-c3ccc(-c4c(C)nn(C)c4C)cc3F)c2C2CC2)cn1 [Compound 21-1, 5-cyclopropyl-1-(2-fluoro-4-(1,3,5-trimethyl-1H-pyrazol-4-yl)phenyl)-N-((6-methylpyridin-3-yl)methyl)-1H-1,2,3-triazole-4-carboxamide]
13 | 6.30 to 7.00 | COc1cc(-c2c(C)nn(C)c2C)ccc1-n1nnc(C(=O)NCc2ccc(C)nc2)c1C1CC1 [Compound 21-2]
14 | 6.30 to 7.00 | Cc1cc(NC(=O)c2nnn(-c3ccc(-c4ccc(C#N)cc4)cc3F)c2C2CC2)ccn1 [Compound 22-1, 1-(4′-cyano-3-fluoro-[1,1′-biphenyl]-4-yl)-5-cyclopropyl-N-(2-methylpyridin-4-yl)-1H-1,2,3-triazole-4-carboxamide]
15 | 6.00 to 6.30 | N#Cc1ccc(-c2ccc(-n3nnc(C(=O)NC4(c5cccnc5)CC4)c3C3CC3)c(F)c2)cc1 [Compound 22-2]
16 | 5.52 to 6.00 | CCn1cc(CNC(=O)c2nnn(-c3ccc(-c4ccc(C#N)cc4)cc3F)c2C2CC2)cn1 [Compound 22-3]
17 | 5.52 to 6.00 | CCn1cc(CNC(=O)c2nnn(-c3ccc(-c4ccc(C#N)cc4)cn3)c2C2CC2)cn1 [Compound 22-4]
18 | 6.30 to 7.00 | Cc1cc(NC(=O)c2nnn(C3CC=C(c4ccc(C#N)cc4)CC3)c2C2CC2)ccn1 (stereo not drawn) [Compound 23-1, 1-(4′-cyano-2,3,4,5-tetrahydro-[1,1′-biphenyl]-4-yl)-5-cyclopropyl-N-(2-methylpyridin-4-yl)-1H-1,2,3-triazole-4-carboxamide]
19 | 5.52 to 6.00 | Cc1ccc(-n2nnc(C(=O)Nc3ccnc(C(F)(F)F)c3)c2C(C)C)cc1 [Compound 24-1, 5-isopropyl-1-(p-tolyl)-N-(2-(trifluoromethyl)pyridin-4-yl)-1H-1,2,3-triazole-4-carboxamide]
20 | 5.52 to 6.00 | CC(=O)c1cccc(-c2cc(-n3nnc(C(=O)Nc4ccncc4)c3C3CC3)ccc2-c2c(C)nn(C)c2C)c1 [Compound 25-1, 1-(3′-acetyl-6-(1,3,5-trimethyl-1H-pyrazol-4-yl)-[1,1′-biphenyl]-3-yl)-5-cyclopropyl-N-(pyridin-4-yl)-1H-1,2,3-triazole-4-carboxamide]
21 | 5.52 to 6.00 | CCO/C=C/c1cc(-n2nnc(C(=O)Nc3ccncc3)c2C2CC2)ccc1-c1c(C)nn(C)c1C [Compound 25-2]
